This is an account of results in patent US20110294789A1, “COMPOUNDS FOR RHO KINASE INHIBITION AND FOR IMPROVING LEARNING AND MEMORY” (AMNESTIX, INC., priority 2008, published 2011).

Entries after “also recorded” stand apart in the source; their conditions may differ.

Experiment [1] relates to hippocampal slices. The experiment in a line: In vitro LTP analysis (theta burst stimulation, fEPSP slope). It is filed as cell-based, Wistar rats. The text has this:
Long-term potentiation (LTP) is an in vitro model for the assessment of memory function. Therefore, it allows analysis of test compounds, e.g. the compounds of the invention, e.g. 1-(8-methyl-5 isoquinoline-sulfonyl)homopiperazine and 1-(1-chloro-8-methoxy-5 isoquinoline-sulfonyl)homopiperazine, for memory enhancing potential. Experiments were done on hippocampal slices from 3-4 week-old Wistar rats. The rats were sacrificed by decapitation without prior anesthesia. Brains were quickly removed and soaked in ice cold artificial cerebrospinal fluid (ACSF) containing: NaCl (124 mM), KCl (5 mM), Na2HPO4 (1.2 mM), NaHCO3 (26 mM), CaCl2 (2 mM), MgSO4 (2 mM), and glucose (10 mM), that was continuously bubbled with carbogen (95% O2, 5% CO2). Slices were then cut at 400 μm thickness using a vibratome and incubated in ACSF at room temperature for at least 1 h before starting recordings. All compounds used were diluted in ACSF at the concentrations needed and were prepared fresh on the day of recording from 100 mM stock solutions. To assure proper solubility of the compounds, stock solutions were made with DMSO. For recording, slices were transferred to a 4-channel slice chamber (Synchroslice, Lohmann Research Equipment) that allows simultaneous recording of 4 brain slices. Each slice was placed in a separate submerged type slice chamber were it was continuously superfused with temperature controlled (34° C.) ACSF or ACSF at a rate of 2 ml/min. Under visual control by a camera system, a bipolar stimulation electrode (Rhoades) was placed in the Schaffer collaterals and a single biphasic electrical stimulus of a duration of 200 μs and an amplitude of 200 μA was applied at 0.05 Hz. A platinum/tungsten electrode was then lowered into the CA1 dendritic layer under visual control until stable amplitudes of the recorded fEPSP were achieved. After a recording period of at least 10 min, the input-output relationship between stimulus amplitude and fEPSP amplitude was achieved separately for each slice. […] To induce LTP, 10 theta bursts were applied. Each burst consisted of 4 biphasic stimuli of […] and 600 μA amplitude at a 10 ms interstimulus interval. The interburst interval was 200 ms. Each recording cycle started with a 15 min period in which electrical stimuli were applied at 0.05 Hz to assure stability of the fEPSP amplitude. Then, test the compound was washed in for a period of 30 min during which stimulation was continued at 0.05 Hz and fEPSPs were continuously recorded. LTP induction by theta burst stimulation was started 30 min after wash in. Recording was continued after LTP induction for at least 60 min, 30 min after LTP induction, compounds were washed out. All slices recorded simultaneously were treated with the same time schedule. From the recorded data, the amplitudes of the evoked fEPSP were automatically calculated by the recording software (Synchroslice data acquisition and analysis, LRE) as the negative peak of the postsynaptic signal with respect to baseline and plotted online. All recorded signals were digitally stored for later offline analysis, in particular for fEPSP negative slope calculation. From the stored single sweeps, the slope was calculated between 30% and 70% of the maximum fEPSP amplitude. To allow comparison of data obtained from different slices, fEPSP slopes were normalized to the control value (100%).
Effects induced by applied substances were tested for statistical significance using either the Student's t-test or the Mann-Whitney Rank Sum Test, significance was assumed if p<0.05. Measurements for each experimental condition were repeated six times. Results are given as means from n=5 slices and standard deviation (SD). […] This could be due to the activation of undesired kinases and/or pathways at this concentration. […]

Experiment [2] deals with over 400 kinases. The experiment in a line: KinomeScan competition binding assay, kinase specificity. To be noted: 10 μM; competition of more than 50% regarded as inhibitory; FIG. 13A. The text has this: (§1) Based on a competition binding assay that quantitatively measures the ability of a test compound to compete with an immobilized, active-site directed ligand it is possible to scan the competitive effect of the test compound for a broad variety of kinases in parallel (KinomeScan, Ambit, San Diego, Calif., USA; Fabian et al., Nat. Biotechnol. 2005, 23, 329). Based on this analysis it is possible to assess the inhibitory specificity of a test compound. […] As result of the assay one obtains the percentage of competition of the active-site directed ligand for each of the over 400 kinases of the test due to the incubation with the test compounds. Competitions of more than 50% were regarded as significant indicating for inhibition of the particular kinase.

The target in experiment [3] is T1, IRAK1 (Homo sapiens, UniProt P51617).
T1 construct: purchased Ambit, San Diego, Calif., USA (KinomeScan)
The experiment in a line: KinomeScan competition binding assay. The conditions noted are these: 10 μM; competition of more than 50% regarded as inhibitory.
Description: as §1

Experiment [4] relates to PIM kinases. The experiment in a line: KinomeScan competition binding assay. The conditions noted are these: 10 μM; competition of more than 50% regarded as inhibitory.
Description: as §1

Experiment [5] has as its system Hippocampal primary neurons. The experiment in a line: Neurite outgrowth analysis. Format: cell-based, rats. To be noted: 1.5 μM or 15 μM, 2 days in culture; versus negative control and Fasudil; FIG. 15. Here is the method: The effect of test compounds on neurite outgrowth can be assessed in vitro. Hippocampal primary neurons prepared from embryonic (E18) rats were cultured in Neurobasal medium (Invitrogen) enriched with B27, bFGF, Penicillin/Streptomycin, L-Glutamin. For the neurite outgrowth assay the medium is mixed with conditioned medium in a 1:1 ratio. The neurites were immunocytochemically stained using an antibody against the axonal marker neurofilament-light. Photographs were acquired at 40-fold magnification (Olympus IX81) and assembled to allow analysis of whole individual neurons. The test compounds 1-(8-methyl-5 isoquinoline-sulfonyl)homopiperazine and 1-(1-chloro-8-methoxy-5 isoquinoline-sulfonyl)homopiperazine were added to the medium in the final concentration of 1.5 μM or 15 μM 1 h after plating in comparison to adding water which served as negative control. […] After 2 days in culture the cells were fixed. Photographs and neurite tracing were performed in a blinded manner.

The target of experiment [6] is T2, recombinant active rho kinase 2 (ROCK) (Homo sapiens, UniProt O75116).
T2 construct: purchased Upstate, Lake Placid, N.Y., USA (enzyme); Cell Biolabs Inc., San Diego (assay kit with substrate)
The experiment in a line: ROCK inhibition assay (ROCK assay kit, anti-phospho-MYPT1 detection). It is filed as biochemical. The conditions noted are these: test compounds 0.1 to 100 μM; compared to Fasudil in corresponding concentration; FIG. 12. The protocol:
The inhibitory effect of test compounds on rho kinase 2 (ROCK) was analyzed using recombinant active rho kinase 2 (Upstate, Lake Placid, N.Y., USA) and the a ROCK assay kit (Cell Biolabs Inc., San Diego, Calif., USA) following the manufacture's instruction. Recombinant rho kinase 2 was dissolved in kinase reaction buffer including the kinase substrate in the presence of the test compound. Test compounds were added in a final concentration of 0.1 to 100 μM. Assays without test compound served as control. […] Assays were incubated at 30° C. for 30-60 min and subsequently stopped by adding 50% of the reaction-volume of 0.5 M EDTA, pH 8.0. After washing steps phosphorylated kinase substrate was quantified using a specific anti-phospho-MYPT1 (Thr696) antibody and a HRP-conjugated secondary antibody.

The target of experiment [7] is T3, ROCK2 (Homo sapiens, UniProt O75116).
T3 construct: purchased Ambit, San Diego, Calif., USA (KinomeScan)
The experiment in a line: KinomeScan competition binding assay. To be noted: 10 μM; compared to Fasudil.
Description: as §1

The conditions of experiment [8]: Huentelman et al. 2009; WO 2008/019395; cited from earlier work.
For experiment [9], the system named is undifferentiated PC12 cells. To be noted: Zhang et al. 2006; cited from earlier work.

T2 sequence (O75116 whole entry): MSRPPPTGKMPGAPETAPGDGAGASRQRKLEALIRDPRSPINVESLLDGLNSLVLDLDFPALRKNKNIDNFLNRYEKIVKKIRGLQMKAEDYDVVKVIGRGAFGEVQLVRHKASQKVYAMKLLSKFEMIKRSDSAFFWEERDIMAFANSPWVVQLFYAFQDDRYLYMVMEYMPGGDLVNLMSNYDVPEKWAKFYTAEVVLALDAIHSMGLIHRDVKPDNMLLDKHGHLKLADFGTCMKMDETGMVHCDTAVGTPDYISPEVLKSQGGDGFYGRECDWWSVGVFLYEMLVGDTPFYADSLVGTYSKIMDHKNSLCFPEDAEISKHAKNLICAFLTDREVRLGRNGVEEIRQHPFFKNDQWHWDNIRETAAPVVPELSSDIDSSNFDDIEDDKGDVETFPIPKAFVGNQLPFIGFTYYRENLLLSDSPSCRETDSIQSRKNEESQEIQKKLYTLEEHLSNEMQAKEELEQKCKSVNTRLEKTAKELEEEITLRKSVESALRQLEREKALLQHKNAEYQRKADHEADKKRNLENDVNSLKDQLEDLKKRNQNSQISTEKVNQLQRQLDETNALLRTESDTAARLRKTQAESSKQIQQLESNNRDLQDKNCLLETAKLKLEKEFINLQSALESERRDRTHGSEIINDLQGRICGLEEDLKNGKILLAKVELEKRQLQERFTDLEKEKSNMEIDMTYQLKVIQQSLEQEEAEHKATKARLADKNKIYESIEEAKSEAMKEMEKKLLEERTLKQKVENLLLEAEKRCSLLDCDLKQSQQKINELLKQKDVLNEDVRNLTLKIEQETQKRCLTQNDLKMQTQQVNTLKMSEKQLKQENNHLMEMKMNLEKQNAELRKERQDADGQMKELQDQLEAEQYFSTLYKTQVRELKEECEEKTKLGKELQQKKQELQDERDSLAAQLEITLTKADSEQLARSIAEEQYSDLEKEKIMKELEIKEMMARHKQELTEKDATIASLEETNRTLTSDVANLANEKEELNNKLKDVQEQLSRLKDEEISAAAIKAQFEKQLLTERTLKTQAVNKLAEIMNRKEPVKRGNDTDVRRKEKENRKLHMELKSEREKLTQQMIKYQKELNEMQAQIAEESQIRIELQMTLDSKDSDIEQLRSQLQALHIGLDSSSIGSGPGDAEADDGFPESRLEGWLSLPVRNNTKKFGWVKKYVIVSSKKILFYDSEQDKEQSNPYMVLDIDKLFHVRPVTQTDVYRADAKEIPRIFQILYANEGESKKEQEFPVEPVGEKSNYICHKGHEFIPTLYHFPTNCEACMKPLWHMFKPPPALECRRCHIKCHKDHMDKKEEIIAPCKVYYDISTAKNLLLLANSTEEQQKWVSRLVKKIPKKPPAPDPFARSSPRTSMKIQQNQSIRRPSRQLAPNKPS
T3 sequence (O75116 whole entry): as above
T1 sequence (P51617 whole entry): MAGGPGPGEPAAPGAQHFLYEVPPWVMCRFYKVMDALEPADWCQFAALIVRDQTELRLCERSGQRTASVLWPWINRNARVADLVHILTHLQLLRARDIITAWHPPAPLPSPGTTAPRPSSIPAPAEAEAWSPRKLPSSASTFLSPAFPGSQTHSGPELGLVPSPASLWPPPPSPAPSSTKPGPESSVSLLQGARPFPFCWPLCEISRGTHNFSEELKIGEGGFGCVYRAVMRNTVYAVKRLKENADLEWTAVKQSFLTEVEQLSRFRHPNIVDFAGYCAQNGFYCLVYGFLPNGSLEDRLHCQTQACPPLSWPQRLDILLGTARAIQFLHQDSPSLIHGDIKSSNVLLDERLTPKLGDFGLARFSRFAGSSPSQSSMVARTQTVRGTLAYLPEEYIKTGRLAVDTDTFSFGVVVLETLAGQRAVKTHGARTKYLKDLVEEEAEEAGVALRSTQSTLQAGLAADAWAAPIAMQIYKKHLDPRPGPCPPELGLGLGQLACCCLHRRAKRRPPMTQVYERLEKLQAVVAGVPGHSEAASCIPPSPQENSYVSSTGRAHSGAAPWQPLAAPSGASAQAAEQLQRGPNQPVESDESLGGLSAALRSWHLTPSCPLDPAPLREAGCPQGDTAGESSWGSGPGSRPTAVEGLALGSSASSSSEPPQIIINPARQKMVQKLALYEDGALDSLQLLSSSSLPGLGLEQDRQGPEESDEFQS

As for `COc1ccc(S(=O)(=O)N2CCCNCC2)c2ccnc(Cl)c12` [1-(1-chloro-8-methoxy-5 isoquinoline-sulfonyl)homopiperazine], the “enhancement of LTP (overall conclusion)” value in experiment [1] is listed as “significant enhancement of LTP”. Besides, the “effect on LTP” value was “clearly superior LTP stimulating effect compared to fasudil” in experiment [1] (1 μM), “LTP induction is unaltered but the maintenance seems to be impaired” in experiment [1] (10 μM) and “LTP induction is blocked completely” in experiment [1] (100 μM). Moreover, the “synaptic activity upon removal of the substance” value in experiment [1] (100 μM, after wash out) is “clear rebound of synaptic activity”. Also, the “kinase specificity / kinase interaction spectrum” value in experiment [2] is “much more specific ROCK inhibitor than Fasudil; also recorded: very specific ROCK inhibitor”. In addition, in experiment [3], the “inhibitory effect for IRAK1” value was “mainly inhibitory effect only for PIM kinases and IRAK1”. Also, in experiment [4], the “inhibitory effect for PIM kinases” value was “mainly inhibitory effect only for PIM kinases and IRAK1”. The “neurite outgrowth promoting activity” value in experiment [5] is given as “did not significantly promote neurite outgrowth”. The “ROCK inhibition (rho kinase 2 activity)” value in [6] is given as “enhanced ROCK inhibition compared to Fasudil”.
For the compound `Cc1ccc(S(=O)(=O)N2CCCNCC2)c2ccncc12` [1-(8-methyl-5 isoquinoline-sulfonyl)homopiperazine], the “effect on LTP” value is “blocks LTP” in [1] (1 μM) and “the ability of LTP induction is re-established” in experiment [1] (100 μM). Besides, the “kinase specificity / kinase interaction spectrum” value in [2] is listed as “broader kinase interaction spectrum comparable to that of Fasudil”. Moreover, the “affinity to ROCK2” value in experiment [7] is “much stronger affinity to ROCK2 than Fasudil”. For the same compound, in experiment [5], the “neurite outgrowth promoting activity” value is reported as “superior neurite outgrowth promoting activity”. In experiment [6], the “ROCK inhibition (rho kinase 2 activity)” value is given as “enhanced ROCK inhibition compared to Fasudil”.
`O=S(=O)(c1cccc2cnccc12)N1CCCNCC1` [Fasudil]: the learning and memory entry in experiment [8] is “can enhance learning and memory”. The neurite outgrowth entry in experiment [9] is recorded as “increase neurite outgrowth”.
